Results taken from patent publication EP2057185B1, “POLYMYXIN DERIVATIVES AND USES THEREOF” (Northern Antibiotics Oy, priority 2006, dated 2008).
Bridge positions count the residues as written; N and C are the ends. Square brackets hold non-standard residues; d marks the D form. Peptide text beside a SMILES is read from it. Dab = NCC[C@H](N)C(=O)O; Abu = CC[C@H](N)C(=O)O

Key:
E. coli ATCC25922 = assay: MIC by E-strips on Mueller-Hinton agar with or without NAB7061 (4 µg/ml); assay type: cell-based, Escherichia coli; details: ratio of the MIC of the antibiotic in the absence of NAB 7061 to that in the presence of 4 µg/ml of NAB 7061; E. coli ATCC 25922
Method: (§1) MICs were determined by using E-strips (Biodisk Ltd., Solna, Sweden) according to the manufacturer's instructions.
(§2) The strains originated from ATCC (11 strains), CCUG (11 strains), and NCTC (The National Collection of Type Cultures, Colindale, U.K.; 2 strains). Eight strains (the F-strains) were purchased from Mobidiag Ltd., Helsinki, Finland.

E. coli IH3080 [1] = assay: as above; assay type: cell-based, Escherichia coli; details: ratio of the MIC of the antibiotic in the absence of NAB 7061 to that in the presence of 4 µg/ml of NAB 7061; E. coli IH 3080
Method: as §1, §2

E. cloacae ATCC23355 = assay: as above; assay type: cell-based, Enterobacter cloacae; details: ratio of the MIC of the antibiotic in the absence of NAB 7061 to that in the presence of 4 µg/ml of NAB 7061; E. cloacae ATCC 23355
Method: as §1, §2

K. pneumoniae ATCC13883 = assay: as above; assay type: cell-based, Klebsiella pneumoniae; details: ratio of the MIC of the antibiotic in the absence of NAB 7061 to that in the presence of 4 µg/ml of NAB 7061; K. pneum. ATCC 13883
Method: as §1, §2

[2] = system: E. coli (ATCC25922 and IH3080), K. pneumoniae ATCC13883, and E. cloacae ATCC23355; assay: E-strip MIC, summary over the tested strains of Example 7; assay type: cell-based; details: range over the tested strains; NAB7061 4 µg/ml
Method: as §1

E. coli IH3080 [3] = assay: Growth inhibition around wells on LB agar plates; assay type: cell-based, Escherichia coli; details: 18 h at 37°C; for Antibacterial activity at 4 µg: growth inhibition area around a well containing 4 µg of compound; for Antibacterial activity at 10 µg: growth inhibition area around a well containing 10 µg of compound
Method: Peptides synthesized in Example 1, all carrying at least two (2) but not more than three (3) positive charges, were studied for their ability to inhibit the growth of E. coli. This was tested employing LB agar (LB Agar Lennox, Difco, BD, Sparks, MD, U.S.A) plates. The indicator organism E. coli IH3080 (K1:O18) was an encapsulated strain originally isolated from a neonate suffering from meningitis (Vaara et al. 1984) and obtained from National Public Health Institute, Helsinki, Finland.
(§3) From an overnight-grown culture of IH3080 on LB agar, a suspension of approx. 10^8 cells/ml was prepared in 0.9% NaCl. Aliquots of this suspension were then pipetted on the agar plates and the plates were gently shaken to spread the suspension evenly on the entire surface of the plate. Thereafter, the unabsorbed part of the suspension was removed by using a Pasteur pipette. After the surface had dried, small wells (diameter, 2 mm) were drilled on the plates (five wells per plate) by using a sterile sharp-edged narrow metal tube, single-use pipette tip, and vacuum suction. […] Controls included 0.9% NaCl solution without the compound to be tested. The plates were then incubated for 18 h at 37°C whereafter the diameters of growth inhibition zones around each well were measured; the diameter of the well itself was […]. Finally, the diameters were converted to surface areas of growth inhibition (in square mm).

E. coli IH3080 [4] = assay: Growth inhibition around wells on LB plates containing rifampin (sensitization); assay type: cell-based, Escherichia coli; details: well containing 4 µg of compound; for Antibacterial activity in the presence of rifampin concn (µg/ml) of 0: plates with no rifampin; for Antibacterial activity in the presence of rifampin concn (µg/ml) of 0.1: rifampin 0.1 µg/ml; for Antibacterial activity in the presence of rifampin concn (µg/ml) of 1.0: rifampin 1.0 µg/ml
Method: as §3, with “mm). […] Louis, MO, U.S.A).” for “mm).”

Ac. baumannii F263 = assay: MIC by E-strips on Mueller-Hinton agar with or without NAB7061 (4 µg/ml); assay type: cell-based, Acinetobacter baumannii; details: A. baumannii F263; NAB 7061 4 µg/ml
Method: as §1, §2

Ac. baumannii F264 = assay: as above; assay type: cell-based, Acinetobacter baumannii; details: A. baumannii F264; NAB 7061 4 µg/ml
Method: as §1, §2

| Compound | Sensitization factor (E. coli ATCC25922) | Sensitization factor (E. coli IH3080 [1]) | Sensitization factor (E. cloacae ATCC23355) | Sensitization factor (K. pneumoniae ATCC13883) | also measured |
| --- | --- | --- | --- | --- | --- |
| CC[C@H]1OC(=O)[C@H](C)[C@@H](O[C@H]2C[C@@](C)(OC)[C@@H](O)[C@H](C)O2)[C@H](C)[C@@H](O[C@@H]2O[C@H](C)C[C@H](N(C)C)[C@H]2O)[C@](C)(O)C[C@@H](C)CN(C)[C@H](C)[C@@H](O)[C@]1(C)O [Azithromycin, azithromycin] | 24 - 64 | 31 - 94 | 32 | 31 - 43 | Sensitization factor [2]: 31-94 |
| CC[C@H]1OC(=O)[C@H](C)[C@@H](O[C@H]2C[C@@](C)(OC)[C@@H](O)[C@H](C)O2)[C@H](C)[C@@H](O[C@@H]2O[C@H](C)C[C@H](N(C)C)[C@H]2O)[C@](C)(O)C[C@@H](C)C(=O)[C@H](C)[C@@H](O)[C@]1(C)O [Erythromycin, erythromycin] | 32 - 48 | 32 - 42 | 21 - 43 | 24 - 48 | Sensitization factor [2]: 21-48 |
| CC(=O)O[C@H]1C[C@@]2(C)[C@@H](C[C@@H](O)[C@H]3[C@@]4(C)CC[C@@H](O)[C@@H](C)[C@@H]4CC[C@@]32C)/C1=C(\CCC=C(C)C)C(=O)O [Fusidic acid, fusidic acid] | > 43 | > 43 | > 8 | > 4 |  |
| CC(=O)NC[C@H]1CN(c2ccc(N3CCOCC3)c(F)c2)C(=O)O1 [Linezolid, linezolid] | > 11 | > 8 | > 8 | > 4 |  |
| C/C(=C\C(=O)OCCCCCCCCC(=O)O)C[C@@H]1OC[C@H](C[C@@H]2O[C@H]2[C@@H](C)[C@H](C)O)[C@@H](O)[C@H]1O [Mupirocin, mupirocin] | 64 - 170 | 64 - 85 | 250 - 512 | 24 - 32 | Sensitization factor [2]: 24-512 |
| CC[C@@H]1NC(=O)[C@H](CC(C)C)NC(=O)[C@@H](Cc2ccccc2)NC(=O)[C@H](CCN)NC(=O)[C@@H](NC(=O)[C@H](CCN)NC(=O)[C@@H](N)[C@@H](C)O)CCNC(=O)[C@H]([C@@H](C)O)NC(=O)[C@H](CC)NC1=O [NAB 701] (H-T[Dab][Dab][Dab][dF]L[Abu][Abu]T; lactam 3-C) |  |  |  |  | Antibacterial activity at 4 µg (E. coli IH3080 [3]): 0 square millimeters; Antibacterial activity at 10 µg (E. coli IH3080 [3]): 0 square millimeters; Antibacterial activity in the presence of rifampin concn (µg/ml) of 0 (E. coli IH3080 [4]): 0 square millimeters; Antibacterial activity in the presence of rifampin concn (µg/ml) of 0.1 (E. coli IH3080 [4]): 0 square millimeters; Antibacterial activity in the presence of rifampin concn (µg/ml) of 1.0 (E. coli IH3080 [4]): 0 square millimeters |
| CC[C@H](NC(=O)[C@@H](N)[C@@H](C)O)C(=O)N[C@H]1CCNC(=O)[C@H]([C@@H](C)O)NC(=O)[C@H](CCN)NC(=O)[C@H](CCN)NC(=O)[C@H](CC(C)C)NC(=O)[C@@H](Cc2ccccc2)NC(=O)[C@H](CCN)NC1=O [NAB 704] (H-T[Abu][Dab][Dab][dF]L[Dab][Dab]T; lactam 3-C) |  |  |  |  | Antibacterial activity at 4 µg (E. coli IH3080 [3]): 0 square millimeters; Antibacterial activity at 10 µg (E. coli IH3080 [3]): 0 square millimeters; Antibacterial activity in the presence of rifampin concn (µg/ml) of 0 (E. coli IH3080 [4]): 0 square millimeters; Antibacterial activity in the presence of rifampin concn (µg/ml) of 0.1 (E. coli IH3080 [4]): 0 square millimeters; Antibacterial activity in the presence of rifampin concn (µg/ml) of 1.0 (E. coli IH3080 [4]): 24 square millimeters |
| CC[C@H](NC(=O)[C@@H](NC(=O)[C@@H](N)CC)[C@@H](C)O)C(=O)N[C@H]1CCNC(=O)[C@H]([C@@H](C)O)NC(=O)[C@H](CCN)NC(=O)[C@H](CCN)NC(=O)[C@H](CC(C)C)NC(=O)[C@@H](Cc2ccccc2)NC(=O)[C@H](CCN)NC1=O [NAB 705] (H-[Abu]T[Abu][Dab][Dab][dF]L[Dab][Dab]T; lactam 4-C) |  |  |  |  | Antibacterial activity at 4 µg (E. coli IH3080 [3]): 0 square millimeters; Antibacterial activity at 10 µg (E. coli IH3080 [3]): 0 square millimeters; Antibacterial activity in the presence of rifampin concn (µg/ml) of 0 (E. coli IH3080 [4]): 0 square millimeters; Antibacterial activity in the presence of rifampin concn (µg/ml) of 0.1 (E. coli IH3080 [4]): 0 square millimeters; Antibacterial activity in the presence of rifampin concn (µg/ml) of 1.0 (E. coli IH3080 [4]): 5 square millimeters |
| CO[C@H]1/C=C/O[C@@]2(C)Oc3c(C)c(O)c4c(O)c(c(/C=N/N5CCN(C)CC5)c(O)c4c3C2=O)NC(=O)/C(C)=C\C=C\[C@H](C)[C@H](O)[C@@H](C)[C@@H](O)[C@@H](C)[C@H](OC(C)=O)[C@@H]1C [Rifampin, rifampin] | 250 - 750 | 170 - 350 | 750 - 1500 | 250 - 500 |  |
| COc1cc(Cc2cnc(N)nc2N)cc(OC)c1OC [Trimetoprim] |  | 3 | 3 | 2 |  |
| CN[C@H](CC(C)C)C(=O)N[C@H]1C(=O)N[C@@H](CC(N)=O)C(=O)N[C@H]2C(=O)N[C@H]3C(=O)N[C@H](C(=O)N[C@H](C(=O)O)c4cc(O)cc(O)c4-c4cc3ccc4O)[C@H](O)c3ccc(c(Cl)c3)Oc3cc2cc(c3O[C@@H]2O[C@H](CO)[C@@H](O)[C@H](O)[C@H]2O[C@H]2C[C@](C)(N)[C@H](O)[C@H](C)O2)Oc2ccc(cc2Cl)[C@H]1O [Vancomycin, vancomycin] | 5 | 2.5 | 32 | 1 |  |
| CO/N=C(\C(=O)N[C@@H]1C(=O)N2C(C(=O)O)=C(COC(C)=O)CS[C@H]12)c1csc(N)n1 [cefotaxime] | < 2 |  |  |  |  |
| CC(C)(O/N=C(\C(=O)N[C@@H]1C(=O)N2C(C(=O)[O-])=C(C[n+]3ccccc3)CS[C@H]12)c1csc(N)n1)C(=O)O [ceftazidime] | < 2 |  |  |  |  |
| C[C@@H](O)[C@H]1C(=O)N2C(C(=O)O)=C(SCCN=CN)C[C@H]12 [imipenem] |  |  |  |  | MIC (µg/ml) at the indicated concn (µg/ml) of NAB 7061: 4 (Ac. baumannii F263): 8 µg/mL; MIC (µg/ml) at the indicated concn (µg/ml) of NAB 7061: 4 (Ac. baumannii F264): 6 µg/mL |
| C[C@H]1COc2c(N3CCN(C)CC3)c(F)cc3c(=O)c(C(=O)O)cn1c23 [levofloxacin] | < 2 |  |  |  |  |
| C[C@@H](O)[C@H]1C(=O)N2C(C(=O)O)=C(S[C@@H]3CN[C@H](C(=O)N(C)C)C3)[C@H](C)[C@H]12 [meropenem] | < 2 |  |  |  | MIC (µg/ml) at the indicated concn (µg/ml) of NAB 7061: 4 (Ac. baumannii F263): 6 µg/mL; MIC (µg/ml) at the indicated concn (µg/ml) of NAB 7061: 4 (Ac. baumannii F264): 4 µg/mL |
| CCN1CCN(C(=O)N[C@@H](C(=O)N[C@@H]2C(=O)N3[C@@H]2SC(C)(C)[C@@H]3C(=O)O)c2ccccc2)C(=O)C1=O [piperacillin] | < 2 |  |  |  |  |
| NC[C@H]1O[C@H](O[C@H]2[C@H](O)[C@@H](O[C@H]3O[C@H](CO)[C@@H](O)[C@H](N)[C@H]3O)[C@H](N)C[C@@H]2N)[C@H](N)C[C@@H]1O [tobramycin] | < 2 |  |  |  |  |
| quinupristin-dalfopristin [Quinupristin-dalfopr.] | > 21 | > 21 | > 5 | 1 |  |
